The source of these data is patent publication US11090319B2, “Therapeutic uses of pharmaceutical compositions comprising cyclic boronic acid ester derivatives” (Melinta Subsidiary Corp., priority 2010, dated 2021).

Test [1] relates to KP1012 Klebsiella pneumoniae SHV-18. The experiment in a line: Checkerboard assay, ceftazidime potentiation. The note with it: ceftazidime MIC 8-fold; KP1012 SHV-18 class A.
For test [2], the system named is KP1008 Klebsiella pneumoniae KPC-2. Briefly: Checkerboard assay, ceftazidime potentiation. The settings on record: ceftazidime MIC 8-fold; KP1008 KPC-2 class A.
Test [3] relates to CF1000 Citrobacter freundii Hyper AmpC expression. The experiment in a line: Checkerboard assay, ceftazidime potentiation. The settings on record: ceftazidime MIC 8-fold; CF1000 Hyper AmpC class C.
Test [4] has as its system KP1007 Klebsiella pneumoniae OXA-10, qnrB4. The experiment in a line: Checkerboard assay, ceftazidime potentiation. The settings on record: ceftazidime MIC 8-fold; KP1007 OXA-10, qnrB4 class D.
Test [5] relates to ec306 Escherichia coli SHV-2. Briefly: Checkerboard assay, ceftazidime potentiation. The note with it: ceftazidime MIC 8-fold; ec306 SHV-2 class A.
Test [6] concerns ec303 Escherichia coli TEM-12. The experiment in a line: Checkerboard assay, ceftazidime potentiation. The note with it: ceftazidime MIC 8-fold; ec303 TEM-12 class A.
Test [7] relates to EC1012 Escherichia coli TEM-12. The experiment in a line: Checkerboard assay, ceftazidime potentiation. The note with it: ceftazidime MIC 8-fold; EC1012 TEM-12 class A.
The test system of test [8] is KP1004 Klebsiella pneumoniae KPC-2. Briefly: Checkerboard assay, ceftazidime potentiation. The note with it: ceftazidime MIC 8-fold; KP1004 KPC-2 class A.
Test [9] relates to ec300 Escherichia coli TEM-3. Briefly: Checkerboard assay, ceftazidime potentiation. The note with it: ceftazidime MIC 8-fold; ec300 TEM-3 class A.
Test [10] deals with EC1011 Escherichia coli TEM-26. The experiment in a line: Checkerboard assay, ceftazidime potentiation. The settings on record: ceftazidime MIC 8-fold; EC1011 TEM-26 class A.
The test system of test [11] is KP1009 Klebsiella pneumoniae CTX-M-15. Briefly: Checkerboard assay, ceftazidime potentiation. The note with it: ceftazidime MIC 8-fold; KP1009 CTX-M-15 class A.
In test [12] the test system is SM1000 Serratia marcescens SME-2. The experiment in a line: Checkerboard assay, biapenem potentiation. The settings on record: Biapenem MIC 8-fold; SM1000 SME-2 class A.
The subject of test [13] is KP1005 Klebsiella pneumoniae CTX-M-14. The experiment in a line: Checkerboard assay, ceftazidime potentiation. The note with it: ceftazidime MIC 8-fold; KP1005 CTX-M-14 class A.
Test [14] concerns EC1008 Escherichia coli CTX-M-3. The experiment in a line: Checkerboard assay, ceftazidime potentiation. The note with it: ceftazidime MIC 8-fold; EC1008 CTX-M-3 class A.
Test [15] concerns EC1014 Escherichia coli DHA-1. The experiment in a line: Checkerboard assay, ceftazidime potentiation. The settings on record: ceftazidime MIC 8-fold; EC1014 DHA-1 class C.
Test [16] relates to EC1009 Escherichia coli TEM-10. Briefly: Checkerboard assay, ceftazidime potentiation. The settings on record: ceftazidime MIC 8-fold; EC1009 TEM-10 class A.
The test system of test [17] is EC1016 Escherichia coli FOX-5. Briefly: Checkerboard assay, ceftazidime potentiation. The settings on record: ceftazidime MIC 8-fold; EC1016 FOX-5 class C.
Test [18] deals with ec307 Escherichia coli SHV-4. The experiment in a line: Checkerboard assay, ceftazidime potentiation. The settings on record: ceftazidime MIC 8-fold; ec307 SHV-4 class A.
The test system of test [19] is KP1010 Klebsiella pneumoniae SHV-12. Briefly: Checkerboard assay, ceftazidime potentiation. The note with it: ceftazidime MIC 8-fold; KP1010 SHV-12 class A.
The test system of test [20] is EC1010 Escherichia coli CMY-6. The experiment in a line: Checkerboard assay, ceftazidime potentiation. The settings on record: ceftazidime MIC 8-fold; EC1010 CMY-6 class C.
In test [21] the test system is EC1004 Escherichia coli CMY-2. Briefly: Checkerboard assay, ceftazidime potentiation. The settings on record: ceftazidime MIC 8-fold; EC1004 CMY-2 class C.
Test [22] relates to EC1006 Escherichia coli FOX-5. Briefly: Checkerboard assay, ceftazidime potentiation. The settings on record: ceftazidime MIC 8-fold; EC1006 FOX-5 class C.
Test [23] concerns ec308 Escherichia coli SHV-5. The experiment in a line: Checkerboard assay, ceftazidime potentiation. The note with it: ceftazidime MIC 8-fold; ec308 SHV-5 class A.
For test [24], the system named is ec310 Escherichia coli ACT-1. The experiment in a line: Checkerboard assay, ceftazidime potentiation. The note with it: ceftazidime MIC 8-fold; ec310 ACT-1 class C.
Test [25] deals with ECL1003 Enterobacter cloacae Hyper AmpC expression. The experiment in a line: Checkerboard assay, ceftazidime potentiation. The note with it: ceftazidime MIC 8-fold; ECL1003 Hyper AmpC class C.
Test [26] has as its system ec301 Escherichia coli TEM-6. The experiment in a line: Checkerboard assay, ceftazidime potentiation. The settings on record: ceftazidime MIC 8-fold; ec301 TEM-6 class A.
The test system of test [27] is EC1007 Escherichia coli KPC-3. The experiment in a line: Checkerboard assay, ceftazidime potentiation. The settings on record: ceftazidime MIC 8-fold; EC1007 KPC-3 class A.
Test [28] has as its system ec304 Escherichia coli TEM-26. The experiment in a line: Checkerboard assay, ceftazidime potentiation. The note with it: ceftazidime MIC 8-fold; ec304 TEM-26 class A.
Test [29] has as its system ECL1004 Enterobacter cloacae NMC-A. The experiment in a line: Checkerboard assay, biapenem potentiation. The note with it: Biapenem MIC 8-fold; ECL1004 NMC-A class A.
For test [30], the system named is EC1007 Escherichia coli KPC-3. The experiment in a line: Checkerboard assay, biapenem potentiation. The settings on record: Biapenem MIC 8-fold; EC1007 KPC-3 class A.
In test [31] the test system is ec302 Escherichia coli TEM-10. Briefly: Checkerboard assay, ceftazidime potentiation. The note with it: ceftazidime MIC 8-fold; ec302 TEM-10 class A.
Test [32] concerns KPX1001 OXA-2. It counts as cell-based. As for the experimental part: (§1) Selected β-lactamase inhibitors were also tested for their ability to potentiate the monobactam tigemonam.
The test system of test [33] is ECL1002. The experiment in a line: Tigemonam potentiation assay (MPC@4), class C and D. It counts as cell-based, Enterobacter cloacae. As for the experimental part: as §1
Test [34] relates to PAM2035. The test is described as above. It counts as cell-based, Pseudomonas aeruginosa. As for the experimental part:
as §1

Test [35] relates to KP1007 OXA-10. It counts as cell-based, Klebsiella pneumoniae. As for the experimental part: as §1
The test system of test [36] is EC1010 CMY-6. Briefly: Tigemonam potentiation assay (MPC@4), class C and D. Format: cell-based, Escherichia coli. The settings on record: EC1010 CMY-6 class C. As for the experimental part: as §1

Regarding `O=C(O)CC1CC[C@H](NC(=O)Cc2cccs2)B(O)O1` (stereo partly drawn) [Compound 1, 2-((3R)-2-hydroxy-3-(2-(thiophen-2-yl)acetamido)-1,2-oxaborinan-6-yl)acetic acid], the MPC8 result in [1] was “Y (MPC8 of greater than 2.5 μg/mL to 10 μg/mL)”; in test [2] it was “X (MPC8 of 2.5 μg/mL or less)”; in test [3] it was “Y (MPC8 of greater than 2.5 μg/mL to 10 μg/mL)”; in test [4] it was “Y (MPC8 of greater than 2.5 μg/mL to 10 μg/mL)”; in test [5], “Y (MPC8 of greater than 2.5 μg/mL to 10 μg/mL)”; in test [6] it was “Y (MPC8 of greater than 2.5 μg/mL to 10 μg/mL)”. The MPC8 result in test [7] is recorded as “Y (MPC8 of greater than 2.5 μg/mL to 10 μg/mL)”; in test [8], “X (MPC8 of 2.5 μg/mL or less)”; in test [9], “Y (MPC8 of greater than 2.5 μg/mL to 10 μg/mL)”; in [10], “Z (MPC8 of greater than 10 μg/mL)”; in test [11], “Y (MPC8 of greater than 2.5 μg/mL to 10 μg/mL)”; in [12], “Y (MPC8 of 0.16 μg/mL to 1 μg/mL)”. The MPC8 entry in test [13] is listed as “Z (MPC8 of greater than 10 μg/mL)”; in test [14], “X (MPC8 of 2.5 μg/mL or less)”; in test [15], “Z (MPC8 of greater than 10 μg/mL)”; in test [16], “Z (MPC8 of greater than 10 μg/mL)”; in test [17], “Z (MPC8 of greater than 10 μg/mL)”; in test [18], “Y (MPC8 of greater than 2.5 μg/mL to 10 μg/mL)”. Also, the MPC8 result in test [19] was “Y (MPC8 of greater than 2.5 μg/mL to 10 μg/mL)”; in test [20], “Y (MPC8 of greater than 2.5 μg/mL to 10 μg/mL)”; in [21] it was “X (MPC8 of 2.5 μg/mL or less)”; in test [22], “Y (MPC8 of greater than 2.5 μg/mL to 10 μg/mL)”; in test [23], “Y (MPC8 of greater than 2.5 μg/mL to 10 μg/mL)”; in test [24], “X (MPC8 of 2.5 μg/mL or less)”. The MPC8 entry in [25] was “Z (MPC8 of greater than 10 μg/mL)”; in test [26], “Z (MPC8 of greater than 10 μg/mL)”; in test [27], “X (MPC8 of 2.5 μg/mL or less)”; in [28] it was “Z (MPC8 of greater than 10 μg/mL)”; in test [29], “Y (MPC8 of 0.16 μg/mL to 1 μg/mL)”; in test [30], “X (MPC8 of less than 0.16 μg/mL)”. Further, in test [31], the MPC8 result is given as “Z (MPC8 of greater than 10 μg/mL)”.

For the molecule `CC1(C)[C@H](NC(=O)/C(=N\OCC(=O)O)c2csc(N)n2)C(=O)N1OS(=O)(=O)O` [Tigemonam], the “Tigemonam MIC” value in test [32] stood at 8 µg/mL; in test [33], 32 µg/mL; in test [34], 8 µg/mL; in test [35] it was 256 µg/mL; in test [36] it was 16 µg/mL.
